For assay [1], the target named is T1, proton pump (H+/K+-ATPase) (Sus scrofa, UniProt P19156).
T1 construct: Gastric vesicles were prepared from hog stomach via centrifugal separation; from tissue; host or cells: hog stomach (gastric vesicles, method of Rabon et al. 1988)
The assay is described as follows: Measurement of inhibitory effects on proton pump (H+/K+-ATPase) activities. Type of assay: biochemical. The following applies: hog gastric vesicles, K+-specific H+/K+-ATPase activity, Tris-HCl buffer pH 7.4, 37° C. for 40 minutes, malachite green Pi readout. In short, it runs like this: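 Hog gastric vesicles in 60 mmol/l Tris-HCl pH 7.4 with 0.5% DMSO were treated with compounds at room temperature; reaction was started with 10 μl of 10 mmol/l ATP stock. Released Pi was read at 570 nm, K+-specific activity taken as the ±K+ difference. IC50 from 4-parameter logistic fit.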

Assay [2] concerns basal gastric acid secretion. The assay is described as follows: Inhibitory effect on the basal gastric acid secretion in pylorus-ligated rats (Shay's rat model). The format is in vivo, Sprague Dawley (SD) rats. As to conditions: 5 h, male SD rats, 3 mg/kg/2 ml into the duodenum, five hours after the ligation, total gastric acid secretion vs control group. The procedure:
3) Inhibitory Effect on the Basal Gastric Acid Secretion in Pylorus-Ligated Rats
Assays for determining inhibitory effect of the compounds of the present invention on the basal gastric acid secretion was performed according to Shay's rat model (Shay, H., et al., 1945, gastroenterology, 5, p. 43-61). Male Sprague Dawley (SD) rats with a body weight in the range of 180˜220 g were divided into test (n=5) and control groups (n=5), and fasted for 18 hours with free access to water. Under isoflurane anesthesia, the abdomens of the rats were incised and then the pylorus was ligated. After the ligation, the control groups were administered with only 10% ethanol, 20% polyethylene glycol (PEG) 400, and 10% aqueous Cremophor solution through the duodenum, and the other groups were administered with test compounds suspended in 10% ethanol, 20% PEG 400, and 10% aqueous Cremophor solution at a concentration of 3 mg/kg/2 ml into the duodenum. Five hours after the ligation, the experimental animals were euthanized and their stomach contents were collected. The thus obtained contents were centrifuged at 4,000×g for 10 minutes, and the supernatant was recovered to obtain gastric juice therefrom. The amount of the gastric juice and its pH were measured. The acidity of the gastric juice was determined by 0.1 N-NaOH volume (ueq/mL) for automatic titration of gastric acid to pH 7.0. The total acid output was obtained by multiplying the gastric acidity by the amount of gastric juice. Inhibition Activity (%) of Test Compounds=(total gastric acid secretion in control group−total gastric acid secretion in groups treated with test compounds)/total gastric acid secretion in control group×100

The text below walks through data of US9676714B2, “Sulfonylindole derivatives and method for preparing the same” (Daewoong Pharmaceutical Co., Ltd., priority 2013, dated 2017).

Structures can show the parent of a compound that is named as a salt.

T1 sequence (P19156 whole entry): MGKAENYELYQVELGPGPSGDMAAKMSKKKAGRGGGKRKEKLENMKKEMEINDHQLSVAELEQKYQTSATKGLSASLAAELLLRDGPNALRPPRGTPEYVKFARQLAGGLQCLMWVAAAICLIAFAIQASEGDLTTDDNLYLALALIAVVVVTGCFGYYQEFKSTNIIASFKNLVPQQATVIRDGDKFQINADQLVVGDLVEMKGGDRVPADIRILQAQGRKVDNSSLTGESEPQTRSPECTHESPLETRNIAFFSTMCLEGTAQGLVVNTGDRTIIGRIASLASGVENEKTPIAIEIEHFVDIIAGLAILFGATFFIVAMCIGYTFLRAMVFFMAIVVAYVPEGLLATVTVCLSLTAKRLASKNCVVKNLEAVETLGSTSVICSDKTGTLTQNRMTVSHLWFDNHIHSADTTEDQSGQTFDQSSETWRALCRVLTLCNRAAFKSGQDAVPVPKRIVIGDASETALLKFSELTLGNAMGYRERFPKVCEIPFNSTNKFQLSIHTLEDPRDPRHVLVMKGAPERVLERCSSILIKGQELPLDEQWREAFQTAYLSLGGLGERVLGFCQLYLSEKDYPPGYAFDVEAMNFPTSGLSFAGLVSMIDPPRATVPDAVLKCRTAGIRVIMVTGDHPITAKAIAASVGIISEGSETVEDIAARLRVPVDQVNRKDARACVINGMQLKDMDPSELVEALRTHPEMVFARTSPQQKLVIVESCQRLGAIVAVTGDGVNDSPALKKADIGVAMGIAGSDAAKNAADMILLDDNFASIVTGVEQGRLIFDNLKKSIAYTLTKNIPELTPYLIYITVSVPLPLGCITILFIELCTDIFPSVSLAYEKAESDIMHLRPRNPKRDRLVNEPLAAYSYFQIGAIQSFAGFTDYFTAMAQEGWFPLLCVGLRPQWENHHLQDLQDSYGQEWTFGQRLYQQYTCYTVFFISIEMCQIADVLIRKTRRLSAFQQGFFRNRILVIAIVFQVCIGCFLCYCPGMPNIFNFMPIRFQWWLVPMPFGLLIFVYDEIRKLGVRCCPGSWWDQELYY
T1 sequence (P18434 whole entry partner): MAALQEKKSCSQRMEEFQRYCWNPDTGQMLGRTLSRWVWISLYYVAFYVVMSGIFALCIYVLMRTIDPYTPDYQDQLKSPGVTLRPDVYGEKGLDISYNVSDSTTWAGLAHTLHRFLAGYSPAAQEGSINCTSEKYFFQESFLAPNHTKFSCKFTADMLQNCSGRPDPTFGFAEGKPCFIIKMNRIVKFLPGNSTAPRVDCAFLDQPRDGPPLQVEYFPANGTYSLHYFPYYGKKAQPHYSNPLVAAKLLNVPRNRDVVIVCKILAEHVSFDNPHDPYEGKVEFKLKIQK

On to `CNCc1cn(S(=O)(=O)c2cccnc2)c2cc(Nc3ccc(C)cc3F)ccc12` [Example 1, N-(2-fluoro-4-methylphenyl)-3-((methylamino)methyl)-1-(pyridin-3-ylsulfonyl)-1H-indol-6-amine hydrochloride], for which, in assay [1], the IC50 was found to be 180 nM. Moreover, in assay [2], the inhibition in vivo at 3 mg/kg was 58%.
Taken in the same sequence, the figures for `CNCc1cn(S(=O)(=O)c2cccnc2)c2cc(Nc3ccc(C)cc3Cl)ccc12` [Example 22, N-(2-chloro-4-methylphenyl)-3-((methylamino)methyl)-1-(pyridin-3-ylsulfonyl)-1H-indol-6-amine] were 210 nM and 48%.
Taken in the same sequence, the figures for `CNCc1cn(S(=O)(=O)c2cccnc2)c2cc(Nc3ccc(Cl)cc3F)ccc12` [Example 28, N-(4-chloro-2-fluorophenyl)-3-((methylamino)methyl)-1-(pyridin-3-ylsulfonyl)-1H-indol-6-amine hydrochloride] were 740 nM and 44%.
Taken in the same sequence, the figures for `CNCc1cn(S(=O)(=O)c2cccnc2)c2cc(Nc3ccc(Cl)cc3Cl)ccc12` [Example 29, N-(2,4-dichlorophenyl)-3-((methylamino)methyl)-1-(pyridin-3-ylsulfonyl)-1H-indol-6-amine hydrochloride] were 130 nM and 44%.
For the compound `CNCc1cn(S(=O)(=O)c2cccnc2)c2cc(Nc3ccc(Cl)cc3C(F)(F)F)ccc12` [Example 31, N-(4-chloro-2-(trifluoromethyl)phenyl)-3-((methylamino)methyl)-1-(pyridin-3-ylsulfonyl)-1H-indol-6-amine hydrochloride], 920 nM corresponded to half-maximal inhibition in assay [1] (IC50). In assay [2], this compound gave an inhibition in vivo at 3 mg/kg of 41%.
In assay [1], `CNCc1cn(S(=O)(=O)c2cccnc2)c2cc(Nc3ccc(C(F)(F)F)cc3Cl)ccc12` [Example 34, N-(2-chloro-4-(trifluoromethyl)phenyl)-3-((methylamino)methyl)-1-(pyridin-3-ylsulfonyl)-1H-indol-6-amine hydrochloride] came in with an IC50 of 390 nM. In assay [2], this compound yielded an inhibition in vivo at 3 mg/kg of 45%.
Taken in the same sequence, the figures for `CNCc1cn(S(=O)(=O)c2cccnc2)c2cc(Nc3ccc(OC)cc3OC(F)(F)F)ccc12` [Example 50, N-(4-methoxy-2-(trifluoromethoxy)phenyl)-3-((methylamino)methyl)-1-(pyridin-3-ylsulfonyl)-1H-indol-6-amine hydrochloride] were 1370 nM and 67%.
As for `CNCc1cn(S(=O)(=O)c2cccnc2)c2cc(Nc3ccc(OC)cc3[N+](=O)[O-])ccc12` [Example 52, N-(4-methoxy-2-nitrophenyl)-3-((methylamino)methyl)-1-(pyridin-3-ylsulfonyl)-1H-indol-6-amine hydrochloride], 290 nM corresponded to half-maximal inhibition in assay [1] (IC50). The compound further displayed an inhibition in vivo at 3 mg/kg in assay [2] of 70%.
Taken in the same sequence, the figures for `CNCc1cn(S(=O)(=O)c2cccnc2)c2cc(Nc3ccc(OC(F)(F)F)cc3C)ccc12` [Example 53, N-(2-methyl-4-(trifluoromethoxy)phenyl)-3-((methylamino)methyl)-1-(pyridin-3-ylsulfonyl)-1H-indol-6-amine hydrochloride] were 490 nM and 45%.
Taken in the same sequence, the figures for `CNCc1cn(S(=O)(=O)c2cccnc2)c2cc(Nc3ccc(OC(F)(F)F)cc3Cl)ccc12` [Example 55, N-(2-chloro-4-(trifluoromethoxy)phenyl)-3-((methylamino)methyl)-1-(pyridin-3-ylsulfonyl)-1H-indol-6-amine hydrochloride] were 420 nM and 55%.
The compound `CNCc1cn(S(=O)(=O)c2cccnc2)c2cc(Nc3ccc(Cl)cc3C)cnc12` [Example 348, N-(4-chloro-2-methylphenyl)-3-((methylamino)methyl)-1-(pyridin-3-ylsulfonyl)-1H-pyrrolo[3,2-b]pyridin-6-amine hydrochloride] displayed an IC50 in assay [1] of 200 nM.
Take `CNCc1cn(S(=O)(=O)c2cccnc2)c2cc(Nc3ccc(Cl)cc3Cl)cnc12` [Example 349, N-(2,4-dichlorophenyl)-3-((methylamino)methyl)-1-(pyridin-3-ylsulfonyl)-1H-pyrrolo[3,2-b]pyridin-6-amine hydrochloride]: the IC50 in assay [1] was 280 nM.
For the compound `CNCc1cn(S(=O)(=O)c2cncc(F)c2)c2cc(Nc3ccc(C)cc3Cl)cnc12` [Example 350, N-(2-chloro-4-methylphenyl)-1-((5-fluoropyridin-3-yl)sulfonyl)-3-((methylamino)methyl)-1H-pyrrolo[3,2-b]pyridin-6-amine hydrochloride], in assay [1], the IC50 is 260 nM.
Still for that read-out and setting: to `CNCc1cn(S(=O)(=O)c2cncc(F)c2)c2cc(Nc3ccc(F)cc3C)cnc12` [Example 351, N-(4-fluoro-2-methylphenyl)-1-((5-fluoropyridin-3-yl)sulfonyl)-3-((methylamino)methyl)-1H-pyrrolo[3,2-b]pyridin-6-amine hydrochloride] belongs 350 nM.
As for `CNCc1cn(S(=O)(=O)c2cncc(F)c2)c2cc(Nc3ccc(F)cc3Cl)cnc12` [Example 352, N-(2-chloro-4-fluorophenyl)-1-((5-fluoropyridin-3-yl)sulfonyl)-3-((methylamino)methyl)-1H-pyrrolo[3,2-b]pyridin-6-amine hydrochloride], the IC50 in assay [1] turned out to be 250 nM.
For `CNCc1cn(S(=O)(=O)c2cccc(F)c2)c2cc(Nc3ccc(C)cc3Cl)ncc12` [Example 353, N-(2-chloro-4-methylphenyl)-1-((3-fluorophenyl)sulfonyl)-3-((methylamino)methyl)-1H-pyrrolo[3,2-c]pyridin-6-amine hydrochloride], in assay [1], the IC50 came to 830 nM.
The same measure, in the same setting: the figure for `CNCc1cn(S(=O)(=O)c2cccc(F)c2)c2cc(Nc3ccc(F)cc3C)ncc12` [Example 354, N-(4-fluoro-2-methylphenyl)-1-((3-fluorophenyl)sulfonyl)-3-((methylamino)methyl)-1H-pyrrolo[3,2-c]pyridin-6-amine hydrochloride] is 800 nM.
The same measure, in the same setting: to `CNCc1cn(S(=O)(=O)c2cccc(F)c2)c2cc(Nc3ccc(F)cc3Cl)ncc12` [Example 355, N-(2-chloro-4-fluorophenyl)-1-((3-fluorophenyl)sulfonyl)-3-((methylamino)methyl)-1H-pyrrolo[3,2-c]pyridin-6-amine hydrochloride] belongs 480 nM; to `CNCc1cn(S(=O)(=O)c2cccc(F)c2)c2cc(Nc3ccc(Cl)nc3Cl)ncc12` [Example 357, N-(2,6-dichloropyridin-3-yl)-1-((3-fluorophenyl)sulfonyl)-3-((methylamino)methyl)-1H-pyrrolo[3,2-c]pyridin-6-amine hydrochloride], 950 nM.
`CNCc1cn(S(=O)(=O)c2cccc(F)c2)c2cc(Nc3ccc(C)nc3Cl)ncc12` [Example 358, N-(2-chloro-6-methylpyridin-3-yl)-1-((3-fluorophenyl)sulfonyl)-3-((methylamino)methyl)-1H-pyrrolo[3,2-c]pyridin-6-amine hydrochloride] registered an IC50 in assay [1] of 1270 nM.
For the compound `CNCc1cn(S(=O)(=O)c2cccc(F)c2)c2cc(Nc3ccc(C)cc3Cl)ncc12` [Example 359, N-(2-chloro-4-methylphenyl)-1-((3-fluorophenyl)sulfonyl)-3-((methylamino)methyl)-1H-pyrrolo[3,2-c]pyridin-6-amine hydrochloride], half-maximal inhibition in assay [1] (IC50) required 18300 nM.
